Test [1] in a line: DRUGMATRIX: Atrial Natriuretic Factor (ANF) radioligand binding (ligand: [125I] ANF (rat)). It counts as cell membranes, Cavia porcellus, Dunkin-Hartley, Adrenal gland, Membrane. The settings on record: Not Active = under 50% inhibition at 10 µM.
The target in test [2] is T1, 5-hydroxytryptamine receptor 2C (Homo sapiens, UniProt P28335).
T1 sequence (P28335 whole entry): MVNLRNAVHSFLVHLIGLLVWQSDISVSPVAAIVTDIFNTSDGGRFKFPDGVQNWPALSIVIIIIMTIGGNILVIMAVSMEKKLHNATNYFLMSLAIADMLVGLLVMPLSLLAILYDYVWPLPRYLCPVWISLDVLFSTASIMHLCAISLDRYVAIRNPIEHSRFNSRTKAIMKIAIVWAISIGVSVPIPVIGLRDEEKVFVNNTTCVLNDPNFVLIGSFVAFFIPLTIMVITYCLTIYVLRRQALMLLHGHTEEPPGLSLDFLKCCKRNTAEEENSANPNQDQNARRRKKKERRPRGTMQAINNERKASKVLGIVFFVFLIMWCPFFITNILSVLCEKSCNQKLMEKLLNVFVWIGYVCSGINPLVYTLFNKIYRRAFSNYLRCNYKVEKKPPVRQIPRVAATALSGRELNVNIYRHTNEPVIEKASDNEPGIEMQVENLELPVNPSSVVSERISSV
Kind of test: DRUGMATRIX: Serotonin (5-Hydroxytryptamine) 5-HT2C radioligand binding (ligand: [3H] Mesulergine). Conditions: Not Active = under 50% inhibition at 10 µM. Type of test: cell membranes, CHO-K1, Membrane.

The target in test [3] is Sigma non-opioid intracellular receptor 1 (Homo sapiens, UniProt Q99720). Nature of the test: DRUGMATRIX: Sigma1 radioligand binding (ligand: [3H] Haloperidol). Type of test: cell membranes, Jurkat, Membrane. Conditions: jurkat; Not Active = under 50% inhibition at 10 µM.
Sigma non-opioid intracellular receptor 1, sequence (Q99720 whole entry): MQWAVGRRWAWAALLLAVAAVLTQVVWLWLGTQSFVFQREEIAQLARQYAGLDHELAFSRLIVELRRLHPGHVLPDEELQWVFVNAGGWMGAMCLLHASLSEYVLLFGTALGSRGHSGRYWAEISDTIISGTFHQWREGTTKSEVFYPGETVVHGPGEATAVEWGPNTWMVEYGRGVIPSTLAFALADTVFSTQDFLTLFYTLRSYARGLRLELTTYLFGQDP
Test [4] deals with Melanocortin receptor 3 (Homo sapiens, UniProt P41968). It counts as cell membranes, Membrane. Conditions: hek293.
Melanocortin receptor 3, sequence (P41968 whole entry): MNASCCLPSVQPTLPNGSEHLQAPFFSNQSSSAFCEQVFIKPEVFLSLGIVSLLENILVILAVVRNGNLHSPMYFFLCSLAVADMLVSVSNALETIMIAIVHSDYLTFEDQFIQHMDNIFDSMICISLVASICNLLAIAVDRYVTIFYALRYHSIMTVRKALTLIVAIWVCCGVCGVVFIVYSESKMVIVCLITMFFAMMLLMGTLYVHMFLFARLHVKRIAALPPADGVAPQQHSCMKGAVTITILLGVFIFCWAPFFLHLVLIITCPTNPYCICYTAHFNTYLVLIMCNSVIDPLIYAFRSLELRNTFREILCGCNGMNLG
Test [5] addresses T2, Nitric oxide synthase, inducible (Mus musculus, UniProt P29477).
T2 sequence (P29477 whole entry): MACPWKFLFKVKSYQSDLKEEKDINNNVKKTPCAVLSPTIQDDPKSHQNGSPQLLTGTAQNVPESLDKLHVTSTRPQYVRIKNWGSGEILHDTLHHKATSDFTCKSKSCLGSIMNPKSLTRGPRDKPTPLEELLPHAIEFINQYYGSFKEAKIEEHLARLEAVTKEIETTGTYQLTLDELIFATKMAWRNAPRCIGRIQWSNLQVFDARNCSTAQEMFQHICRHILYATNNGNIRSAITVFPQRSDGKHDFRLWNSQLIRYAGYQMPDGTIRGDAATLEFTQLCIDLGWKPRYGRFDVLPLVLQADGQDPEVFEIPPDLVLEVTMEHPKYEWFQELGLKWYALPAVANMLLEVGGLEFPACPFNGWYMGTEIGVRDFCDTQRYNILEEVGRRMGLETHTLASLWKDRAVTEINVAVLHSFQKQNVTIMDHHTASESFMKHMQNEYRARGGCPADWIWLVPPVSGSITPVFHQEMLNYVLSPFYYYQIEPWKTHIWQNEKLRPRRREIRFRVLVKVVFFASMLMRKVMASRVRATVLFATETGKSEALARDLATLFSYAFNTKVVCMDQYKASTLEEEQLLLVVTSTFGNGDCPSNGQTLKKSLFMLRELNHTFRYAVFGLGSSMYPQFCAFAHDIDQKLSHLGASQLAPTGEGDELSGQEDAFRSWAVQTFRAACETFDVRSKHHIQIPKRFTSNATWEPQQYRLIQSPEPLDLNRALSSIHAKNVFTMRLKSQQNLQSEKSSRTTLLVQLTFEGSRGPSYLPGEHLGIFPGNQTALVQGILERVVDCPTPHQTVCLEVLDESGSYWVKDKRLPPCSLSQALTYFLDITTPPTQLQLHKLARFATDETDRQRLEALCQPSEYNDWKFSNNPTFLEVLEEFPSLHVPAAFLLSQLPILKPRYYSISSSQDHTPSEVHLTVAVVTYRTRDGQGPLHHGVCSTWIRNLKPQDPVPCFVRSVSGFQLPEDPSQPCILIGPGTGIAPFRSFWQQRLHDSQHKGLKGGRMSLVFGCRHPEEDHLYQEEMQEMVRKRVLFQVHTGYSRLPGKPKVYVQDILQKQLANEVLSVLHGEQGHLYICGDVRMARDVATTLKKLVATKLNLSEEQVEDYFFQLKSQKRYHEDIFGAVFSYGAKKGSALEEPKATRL
Also noted: species or system Escherichia coli.

Test [6] in a line: DRUGMATRIX: Phosphodiesterase PDE4 enzyme inhibition (substrate: [3H]cAMP + cAMP). Conditions: u-937; Not Active = under 50% inhibition at 10 µM.
In test [7] the target is Protein phosphatase 3 catalytic subunit alpha (Homo sapiens, UniProt Q08209). Also noted: species or system Escherichia coli.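 Also: inhibition of calcineurin (PP2B) enzyme activity, measured with DiFMUP as the substrate; in other assays of this panel Not Active means under 50% inhibition at 10 µM.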
Test [8] concerns the target T3, Glucocorticoid receptor (Homo sapiens, UniProt P04150). Also: in other assays of this panel Not Active means under 50% inhibition at 10 µM.
T3 sequence (P04150 whole entry): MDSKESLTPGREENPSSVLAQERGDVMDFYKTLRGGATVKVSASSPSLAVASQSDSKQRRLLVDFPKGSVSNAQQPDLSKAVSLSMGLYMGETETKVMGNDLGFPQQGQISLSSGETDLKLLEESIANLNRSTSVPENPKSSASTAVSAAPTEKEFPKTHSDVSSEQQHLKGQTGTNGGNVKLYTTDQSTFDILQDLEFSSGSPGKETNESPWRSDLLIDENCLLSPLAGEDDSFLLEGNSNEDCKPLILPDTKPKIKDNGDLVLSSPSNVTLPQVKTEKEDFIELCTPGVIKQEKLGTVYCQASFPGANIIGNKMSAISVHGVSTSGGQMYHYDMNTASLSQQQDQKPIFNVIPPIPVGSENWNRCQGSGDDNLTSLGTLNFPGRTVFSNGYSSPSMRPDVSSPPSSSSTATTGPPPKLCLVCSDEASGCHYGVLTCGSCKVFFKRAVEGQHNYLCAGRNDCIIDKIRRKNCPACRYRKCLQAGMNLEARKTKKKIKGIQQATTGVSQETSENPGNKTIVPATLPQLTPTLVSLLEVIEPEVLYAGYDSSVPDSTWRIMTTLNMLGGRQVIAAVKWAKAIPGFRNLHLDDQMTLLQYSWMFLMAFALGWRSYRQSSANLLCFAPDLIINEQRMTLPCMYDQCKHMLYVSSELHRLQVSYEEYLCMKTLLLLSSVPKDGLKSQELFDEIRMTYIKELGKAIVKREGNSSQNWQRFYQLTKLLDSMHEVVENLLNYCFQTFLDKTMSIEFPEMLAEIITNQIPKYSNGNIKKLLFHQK
Conditions: hela s3.

A word on the IC50: it is the midpoint of a concentration-inhibition curve. For orientation: Ki means a dissociation constant, usually derived from enzyme kinetics or from competition with a known ligand. For the compound `C[C@@H](O)[C@H]1C(=O)N2C(C(=O)O)=C(S[C@@H]3CN[C@H](C(=O)N(C)C)C3)[C@H](C)[C@H]12` [MEROPENEM], the IC50 entry in test [1], in test [2] (cho-k1), in test [3], in test [4], in test [5] and in test [6] was “Not Active” each time. Besides, the IC50 entry in test [7] and in test [8] was “Not Active” throughout. The Ki result in test [1] and in test [6] was “Not Active” each time.

With `O=P(O)(O)C(O)(Cc1cccnc1)P(=O)(O)O` [RISEDRONIC ACID], the IC50 result in test [1], in test [2] (cho-k1), in test [3], in test [4], in test [5] and in test [6] was “Not Active” each time. In addition, the IC50 entry in test [7] and in test [8] was “Not Active” in each case. The Ki entry in test [1] and in test [6] was “Not Active” in each case.

For `C=C(C)[C@H]1Cc2c(ccc3c2O[C@@H]2COc4cc(OC)c(OC)cc4[C@@H]2C3=O)O1` [ROTENONE], the IC50 entry in test [1], in test [2] (cho-k1), in test [3], in test [4], in test [5] and in test [6] was “Not Active” in each case. Also, the IC50 entry in test [7] and in test [8] was “Not Active” in each case. Besides, the Ki result in test [1] and in test [6] was “Not Active” each time.

Take `C#CCN(C)[C@H](C)Cc1ccccc1` [SELEGILINE]: the IC50 result in test [1], in test [2] (cho-k1), in test [3], in test [4], in test [5] and in test [6] was “Not Active” in each case. The IC50 result in test [7] and in test [8] was “Not Active” in each case. For the same compound, the Ki result in test [1] and in test [6] was “Not Active” throughout.

In the case of `CN[C@@H]1[C@H](O)[C@H](NC)[C@H]2O[C@@]3(O)C(=O)C[C@@H](C)O[C@H]3O[C@@H]2[C@H]1O` [SPECTINOMYCIN], the IC50 entry in test [1], in test [2] (cho-k1), in test [3], in test [4], in test [5] and in test [6] was “Not Active” each time. Moreover, the IC50 result in test [7] and in test [8] was “Not Active” throughout. The Ki result in test [1] and in test [6] was “Not Active” in each case.

With `Nc1ccc(S(=O)(=O)Nc2nccs2)cc1` [SULFATHIAZOLE], the IC50 entry in test [1], in test [2] (cho-k1), in test [3], in test [4], in test [5] and in test [6] was “Not Active” throughout. Moreover, the IC50 result in test [7] and in test [8] was “Not Active” in each case. In addition, the Ki result in test [1] and in test [6] was “Not Active” each time.

With `CC(C)(C)NC[C@H](O)COc1nsnc1N1CCOCC1` [TIMOLOL], the IC50 entry in test [1], in test [2] (cho-k1), in test [3], in test [4], in test [5] and in test [6] was “Not Active” each time. Further, the IC50 result in test [7] and in test [8] was “Not Active” throughout. Moreover, the Ki result in test [1] and in test [6] was “Not Active” throughout.

For `C[C@@H]1C[C@H]2[C@@H]3CCC4=CC(=O)C=C[C@]4(C)C3=CC[C@]2(C)[C@H]1C(=O)CN1CCN(c2cc(N3CCCC3)nc(N3CCCC3)n2)CC1` [TIRILAZAD], the IC50 entry in test [1] was “Not Active”; in test [2] (read-out: IC50), 718 nM; in test [3], “Not Active”; in test [4] it was “Not Active”; in test [5], “Not Active”; in test [6] it was “Not Active”. Besides, the IC50 result in test [7] and in test [8] was “Not Active” in each case. In addition, the figures for the Ki result in test [1], in test [2] (read-out: Ki) and in test [6] were “Not Active”, 376 nM and “Not Active”, respectively.

Turning to `COc1ccc(CN2CCNCC2)c(OC)c1OC` [TRIMETAZIDINE], the IC50 result in test [1], in test [2] (cho-k1), in test [3], in test [4], in test [5] and in test [6] was “Not Active” each time. In addition, the IC50 entry in test [7] and in test [8] was “Not Active” each time. Besides, the Ki result in test [1] and in test [6] was “Not Active” throughout.

`COc1cc(C(=O)NS(=O)(=O)c2ccccc2C)ccc1Cc1cn(C)c2ccc(NC(=O)OC3CCCC3)cc12` [ZAFIRLUKAST]: the half-maximal inhibitory concentration (IC50) entry in test [1], in test [2] (cho-k1), in test [3], in test [4], in test [5] and in test [6] was “Not Active” each time. Also, the IC50 result in test [7] and in test [8] was “Not Active” in each case. Also, the Ki entry in test [1] and in test [6] was “Not Active” throughout.

In the case of `Cc1cn([C@H]2C[C@H](N=[N+]=[N-])[C@@H](CO)O2)c(=O)[nH]c1=O` [ZIDOVUDINE], the IC50 result in test [1], in test [2] (cho-k1), in test [3], in test [4], in test [5] and in test [6] was “Not Active” in each case. The IC50 result in test [7] and in test [8] was “Not Active” in each case. Also, the Ki entry in test [1] and in test [6] was “Not Active” each time.

The values above are taken from ChEMBL document CHEMBL1909046, “DrugMatrix in vitro pharmacology data”.
